Measurements reported in ChEMBL document CHEMBL3044611, “Synthesis of novel Hantzsch dihydropyridines and Biginelli dihydropyrimidines of biological interest: a 3D-QSAR study on their cytotoxicity” (Med Chem Res, 2010).
Values after ≈ are worked out from the molar mass of the structure shown. Active and inactive are the calls of the source. The rule behind the calls is not given here.

What was measured:
Bacillus subtilis = test: Antibacterial activity against Bacillus subtilis at 50 ug/well after 24 hr by agar well diffusion method; assay type: functional, organism-based
Staphylococcus aureus = test: Antibacterial activity against Staphylococcus aureus at 50 ug/well after 24 hr by agar well diffusion method; assay type: functional, organism-based
Vero = test: (§1) Cytotoxicity against Chlorocebus aethiops (African green monkey) Vero cells assessed as cell viability after 3 days by SRB assay; assay type: cell-based; conditions: chlorocebus sabaeus, vero, 72 h
[1] = as §1; assay type: cell-based; conditions: chlorocebus sabaeus, Vero cells

| Structure (SMILES) | Activity (Bacillus subtilis) | Activity (Staphylococcus aureus) | pCC50 (Vero) | CC50 at 72 h [1] |
| --- | --- | --- | --- | --- |
| COc1ccc(NC(=O)C2=C(C)NC(=S)NC2c2ccccc2)cc1 (stereo not given) | inactive | inactive | 1.371 | 15 µg/mL (≈ 42.4 µM) |
| COc1ccc(NC(=O)C2=C(C)NC(=S)NC2c2cccc([N+](=O)[O-])c2)cc1 (stereo not given) | inactive | inactive | 0.697 | 80 µg/mL (≈ 201 µM) |
| CC1=C(C(=O)Nc2ccc(Cl)cc2)C(c2cccc(Cl)c2)C(C(=O)Nc2ccc(Cl)cc2)=C(C)N1 | inactive | inactive | 1.642 | 12 µg/mL (≈ 22.8 µM) |
| COc1ccc(NC(=O)C2=C(C)NC(=S)NC2c2cccc(Cl)c2)cc1 (stereo not given) | inactive | inactive | 0.157 | 270 µg/mL (≈ 696 µM) |
| COc1ccc(NC(=O)C2=C(C)N=C(S)NC2c2ccc(O)c(OC)c2)cc1 (stereo not given) | inactive | inactive | 1.698 | 8 µg/mL (≈ 20 µM) |
| COc1ccc(NC(=O)C2=C(C)NC(=O)NC2c2ccncc2)cc1 (stereo not given) | inactive | inactive | 1.529 | 10 µg/mL (≈ 29.6 µM) |
| CC1=C(C(=O)Nc2ccc(Cl)cc2)CC(C(=O)Nc2ccc(Cl)cc2)=C(C)N1 | inactive | inactive | 1.017 | 40 µg/mL (≈ 96.1 µM) |
| CC1=C(C(=O)Nc2ccc(Cl)cc2)C(c2ccncc2)C(C(=O)Nc2ccc(Cl)cc2)=C(C)N1 | inactive | inactive | 0.8 | 78 µg/mL (≈ 158 µM) |
| COc1ccc(NC(=O)C2=C(C)NC(=O)NC2c2cccc(Cl)c2)cc1 (stereo not given) | inactive | inactive | 0.164 | 254 µg/mL (≈ 683 µM) |
| COc1cc(C2C(C(=O)Nc3ccc(Cl)cc3)=C(C)NC(C)=C2C(=O)Nc2ccc(Cl)cc2)ccc1O | inactive | inactive | 0.333 | 250 µg/mL (≈ 464 µM) |
| CC1=C(C(=O)Nc2ccc(Cl)cc2)C(/C=C/c2ccccc2)C(C(=O)Nc2ccc(Cl)cc2)=C(C)N1 | inactive | inactive | 1.392 | 21 µg/mL (≈ 40.5 µM) |
| COc1ccc(NC(=O)C2=C(C)NC(=O)NC2c2ccc(O)c(OC)c2)cc1 (stereo not given) | inactive | inactive | 1.68 | 8 µg/mL (≈ 20.9 µM) |
| COc1ccc(NC(=O)C2=C(C)NC(=S)NC2c2ccco2)cc1 (stereo not given) | inactive | inactive | 0.173 | 230 µg/mL (≈ 670 µM) |
| COc1ccc(NC(=O)C2=C(C)NC(=O)NC2c2cccc([N+](=O)[O-])c2)cc1 (stereo not given) | inactive | inactive | 0.776 | 64 µg/mL (≈ 167 µM) |
| COc1ccc(NC(=O)C2=C(C)NC(=O)NC2c2ccc(N(C)C)cc2)cc1 (stereo not given) | inactive | inactive | 0.207 | 236 µg/mL (≈ 620 µM) |
| CC1=C(C(=O)Nc2ccc(Cl)cc2)C(c2ccccc2O)C(C(=O)Nc2ccc(Cl)cc2)=C(C)N1 | inactive | inactive | 0.913 | 62 µg/mL (≈ 122 µM) |
| CC1=C(C(=O)Nc2ccc(Cl)cc2)C(c2ccco2)C(C(=O)Nc2ccc(Cl)cc2)=C(C)N1 | inactive | inactive | 1.302 | 24 µg/mL (≈ 49.8 µM) |
| COc1ccc(NC(=O)C2=C(C)NC(=O)NC2c2ccc(OC)cc2)cc1 (stereo not given) | inactive | inactive | 0.367 | 158 µg/mL (≈ 430 µM) |
| COc1ccc(NC(=O)C2=C(C)NC(=O)NC2/C=C/c2ccccc2)cc1 (stereo not given) | inactive | inactive | 1.383 | 15 µg/mL (≈ 41.3 µM) |
| COc1ccc(NC(=O)C2=C(C)NC(=O)NC2c2ccccc2O)cc1 (stereo not given) | inactive | inactive | 0.343 | 160 µg/mL (≈ 453 µM) |
| COc1ccc(NC(=O)C2=C(C)NC(=S)NC2c2ccccc2O)cc1 (stereo not given) | inactive | inactive | 0.176 | 246 µg/mL (≈ 666 µM) |
| COc1ccc(NC(=O)C2=C(C)NC(=O)NC2c2ccco2)cc1 (stereo not given) | inactive | inactive | 0.192 | 210 µg/mL (≈ 642 µM) |
| COc1ccc(NC(=O)C2=C(C)NC(=S)NC2c2ccc(OC)cc2)cc1 (stereo not given) | inactive | inactive | 0.408 | 150 µg/mL (≈ 391 µM) |
| COc1ccc(C2C(C(=O)Nc3ccc(Cl)cc3)=C(C)NC(C)=C2C(=O)Nc2ccc(Cl)cc2)cc1 | inactive | inactive | 1.42 | 20 µg/mL (≈ 38.3 µM) |
| CC1=C(C(=O)Nc2ccc(Cl)cc2)C(c2cccc([N+](=O)[O-])c2)C(C(=O)Nc2ccc(Cl)cc2)=C(C)N1 | inactive | inactive | 1.315 | 26 µg/mL (≈ 48.4 µM) |
| COc1ccc(NC(=O)C2=C(C)NC(=O)NC2)cc1 | inactive | inactive | 0.116 | 200 µg/mL (≈ 765 µM) |
| COc1ccc(NC(=O)C2=C(C)NC(=S)NC2c2ccc(N(C)C)cc2)cc1 (stereo not given) | inactive | inactive | -0.101 | 500 µg/mL (≈ 1260 µM) |
| CC1=C(C(=O)Nc2ccc(Cl)cc2)C(c2ccc(N(C)C)cc2)C(C(=O)Nc2ccc(Cl)cc2)=C(C)N1 | inactive | inactive | 0.538 | 155 µg/mL (≈ 289 µM) |
| COc1ccc(NC(=O)C2=C(C)NC(=O)NC2c2ccccc2)cc1 (stereo not given) | inactive | inactive | 0.176 | 225 µg/mL (≈ 667 µM) |
| CC1=C(C(=O)Nc2ccc(Cl)cc2)C(c2ccccc2)C(C(=O)Nc2ccc(Cl)cc2)=C(C)N1 | inactive | inactive | 1.516 | 15 µg/mL (≈ 30.5 µM) |
